# Source: patent US11623919B2, “Heterocyclic P2X7 antagonists” (AXXAM S.P.A., priority 2017, dated 2023)
# Legend:
# Assay type in all cases: cell-based
# P2X7 receptor [1] = biological target: T1, P2X7 receptor (Mus musculus, UniProt Q9Z1M0); assay: Screen Quest Fluo-8 No Wash Calcium Assay (Bz-ATP evoked Ca2+ influx, FLIPR); conditions: mP2X7; HEK-293 cells stably transfected with P2X7 receptor, Bz-ATP at EC80, Fluo-8 NW; potency ranges A-D
# T1 construct: mP2X7 (IC50; nM); other: mP2X7; HEK-293 cells stably transfected with P2X7 receptor, Bz-ATP at EC80, Fluo-8 NW; potency
# T1 sequence (Q9Z1M0 1-595): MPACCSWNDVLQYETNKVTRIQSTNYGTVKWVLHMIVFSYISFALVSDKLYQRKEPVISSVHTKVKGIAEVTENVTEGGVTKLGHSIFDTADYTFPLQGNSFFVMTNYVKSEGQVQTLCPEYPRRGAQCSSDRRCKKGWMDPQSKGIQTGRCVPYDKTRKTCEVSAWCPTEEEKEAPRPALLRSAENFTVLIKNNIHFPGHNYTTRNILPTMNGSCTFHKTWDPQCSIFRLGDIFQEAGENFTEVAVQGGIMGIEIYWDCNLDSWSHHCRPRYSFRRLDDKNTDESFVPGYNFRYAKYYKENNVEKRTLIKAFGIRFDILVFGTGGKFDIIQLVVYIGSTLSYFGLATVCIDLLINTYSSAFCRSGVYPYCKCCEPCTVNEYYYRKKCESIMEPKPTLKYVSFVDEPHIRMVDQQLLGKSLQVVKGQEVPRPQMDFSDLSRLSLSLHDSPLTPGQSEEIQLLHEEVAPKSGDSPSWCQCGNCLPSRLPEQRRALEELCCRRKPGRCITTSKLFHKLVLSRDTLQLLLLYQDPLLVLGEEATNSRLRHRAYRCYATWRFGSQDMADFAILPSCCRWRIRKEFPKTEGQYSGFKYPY
# Method in brief: (§1)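 Compounds were added to Fluo-8-loaded P2X7-transfected HEK-293 cells 5 min before an EC80 Bz-ATP challenge, and Ca2+ influx was then recorded for 3 min. Buffer held 0.3 mM Ca2+ and no Mg2+. Inhibition was normalised to A438079, giving IC50 values.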
# P2X7 receptor [2] = biological target: T2, P2X7 receptor (Rattus norvegicus, UniProt Q64663); assay: as above; conditions: rP2X7; HEK-293 cells stably transfected with P2X7 receptor, Bz-ATP at EC80, Fluo-8 NW; potency ranges A-D
# T2 construct: rP2X7 (IC50; nM); other: rP2X7; HEK-293 cells stably transfected with P2X7 receptor, Bz-ATP at EC80, Fluo-8 NW; potency
# T2 sequence (Q64663 1-595): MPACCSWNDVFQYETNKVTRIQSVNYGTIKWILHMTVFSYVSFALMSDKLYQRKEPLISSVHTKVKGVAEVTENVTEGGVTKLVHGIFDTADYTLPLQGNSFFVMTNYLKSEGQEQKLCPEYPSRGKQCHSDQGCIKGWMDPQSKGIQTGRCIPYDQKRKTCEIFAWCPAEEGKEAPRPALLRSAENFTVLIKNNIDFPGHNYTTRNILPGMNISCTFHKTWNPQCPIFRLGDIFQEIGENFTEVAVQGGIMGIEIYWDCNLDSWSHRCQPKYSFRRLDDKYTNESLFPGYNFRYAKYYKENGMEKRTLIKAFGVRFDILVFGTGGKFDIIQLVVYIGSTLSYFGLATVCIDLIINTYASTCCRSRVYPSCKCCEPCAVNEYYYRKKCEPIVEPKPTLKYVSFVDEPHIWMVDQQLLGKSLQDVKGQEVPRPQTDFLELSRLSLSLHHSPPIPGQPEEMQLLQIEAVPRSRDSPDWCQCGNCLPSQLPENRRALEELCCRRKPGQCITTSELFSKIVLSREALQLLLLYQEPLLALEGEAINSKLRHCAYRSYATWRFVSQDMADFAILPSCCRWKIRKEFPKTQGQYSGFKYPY
# Method in brief: as §1
# P2X7 receptor [3] = biological target: T3, P2X7 receptor (Homo sapiens, UniProt Q99572); assay: Automated patch-clamp (QPatch16X) P2X7 channel assay; parameters: expressed in transfected cells; host or cells: HEK-293; conditions: HEK-293 cells expressing P2X7 channels; whole-cell, held at -80 mV; 100 microM BzATP; compound 1, 10, 100 and 1000 nM; read-out: Q-Patch (IC50)
# T3 sequence (Q99572 1-595): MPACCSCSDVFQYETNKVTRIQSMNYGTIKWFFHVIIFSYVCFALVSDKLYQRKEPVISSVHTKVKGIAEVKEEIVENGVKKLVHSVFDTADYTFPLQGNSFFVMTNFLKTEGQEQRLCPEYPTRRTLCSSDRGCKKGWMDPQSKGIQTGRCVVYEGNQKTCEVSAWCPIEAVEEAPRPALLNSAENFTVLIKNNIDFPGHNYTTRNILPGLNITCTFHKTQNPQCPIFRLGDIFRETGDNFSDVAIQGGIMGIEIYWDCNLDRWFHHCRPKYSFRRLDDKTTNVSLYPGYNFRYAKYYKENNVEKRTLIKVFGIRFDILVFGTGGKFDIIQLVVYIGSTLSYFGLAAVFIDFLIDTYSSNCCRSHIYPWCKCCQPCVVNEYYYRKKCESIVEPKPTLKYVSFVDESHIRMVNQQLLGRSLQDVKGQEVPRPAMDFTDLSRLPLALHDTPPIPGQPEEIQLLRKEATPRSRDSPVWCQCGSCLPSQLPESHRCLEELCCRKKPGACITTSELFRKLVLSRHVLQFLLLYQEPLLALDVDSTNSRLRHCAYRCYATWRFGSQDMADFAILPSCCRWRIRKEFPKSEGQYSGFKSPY
# Description: In order to directly monitor the block of P2X7 channel, an electrophysiological assay was developed and implemented on the QPatch16X automated electrophysiology instrument.
# HEK-293 cells expressing the P2X7 channels were cultured in modified EMEM.
# 72 hours before experiment, 5 million cells were seeded onto T225 flasks. Just before the experiment cells were washed twice, detached from the flask with trypsin-EDTA, re-suspended in the suspension solution and placed on the QPatch 16x.
# The compounds (20 mM in a 100% DMSO) stored at −20° C. were prepared the day of the experiment (a first dilution 1:20 in 100% DMSO to prepare a 1 mM stock solution, then a 1 microM solution in external solution+a serial dilution 1:10).
# The standard whole-cell voltage clamp experiments were performed at room temperature. From these experiments the multihole technology was used and the data were sampled at 2 KHz.
# The intracellular solution contained (mM) 135 CsF, 10 NaCl, 1 EGTA, 10 HEPES, (pH 7.2 with CsOH) whereas the extracellular contained (mM) 145 NaCl, 4 KCl, 0.5 MgCl2, 1 CaCl2, 10 HEPES, 10 Glc (pH 7.4 with NaOH).
# After establishment of the seal and the passage in the whole cell configuration, the cells were held at −80 mV. The P2XR7 current was evoked by applying 100 microM of BzATP alone (4 times) and then in the presence increasing concentrations of the compound under investigation (1, 10, 100 and 1000 nM).
# The pre-incubation periods 5 to 8 contain increasing concentrations of the compound of interest (1, 10, 100 and 1000 nM), as illustrated in FIGURE (application protocol).
# The maximal inward current evoked by BzATP in absence or presence of increasing concentrations of the compounds under investigation was measured and normalized. The potential […] effect was measured as % of control and as IC50 determined fitting the dose-response curves data with the following equation: Y=100/(1+10^((Log IC50−X)*HillSlope))
# P2X7 receptor [4] = biological target: T3, P2X7 receptor; assay: Screen Quest Fluo-8 No Wash Calcium Assay (Bz-ATP evoked Ca2+ influx, FLIPR); parameters: hP2X7 (IC50; nM); other: hP2X7; HEK-293 cells stably transfected with P2X7 receptor, Bz-ATP at EC80, Fluo-8 NW; potency; conditions: hP2X7; HEK-293 cells stably transfected with P2X7 receptor, Bz-ATP at EC80, Fluo-8 NW; potency ranges A-D
# Method in brief: as §1
IC50 (P2X7 receptor [1]),IC50 (P2X7 receptor [2]),IC50 (P2X7 receptor [3]),IC50 (P2X7 receptor [4]),SMILES
200 to 1000 nM,200 to 1000 nM,0.355 µM,200 to 1000 nM,"O=c1onc(Cc2c(F)cccc2Cl)n1Cc1cccc(Cl)c1Cl [Example 59, 3-[(2-chloro-6-fluorophenyl)methyl]-4-[(2,3-dichlorophenyl)methyl]-4,5-dihydro-1,2,4-oxadiazol-5-one]"
1000 to 10000 nM,200 to 1000 nM,0.391 µM,1000 to 10000 nM,"CC(c1ccccc1)n1c(Cc2c(F)cccc2Cl)noc1=O (centres unmarked) [Example 49, 3-[(2-chloro-6-fluorophenyl)methyl]-4-(1-phenylethyl)-4,5-dihydro-1,2,4-oxadiazol-5-one]"
> 10000 nM,> 10000 nM,,> 10000 nM,"O=c1onc(Cc2c(F)cccc2Cl)n1Cc1cncs1 [Example 33, 3-[(2-chloro-6-fluorophenyl)methyl]-4-(1,3-thiazol-5-ylmethyl)-4,5-dihydro-1,2,4-oxadiazol-5-one]"
200 to 1000 nM,1000 to 10000 nM,,> 10000 nM,"O=c1onc(Cc2ccncc2)n1CC1CCCCC1 [Example 111, 4-(cyclohexylmethyl)-3-(pyridin-4-ylmethyl)-4,5-dihydro-1,2,4-oxadiazol-5-one]"
> 10000 nM,> 10000 nM,,1000 to 10000 nM,"Cc1nn(C)c(C)c1Cc1noc(=O)n1Cc1ccc(F)cc1 [Example 212, 4-[(4-fluorophenyl)methyl]-3-[(trimethyl-1H-pyrazol-4-yl)methyl]-4,5-dihydro-1,2,4-oxadiazol-5-one]"
> 10000 nM,> 10000 nM,,> 10000 nM,"CCCn1c(Cc2c(F)cccc2Cl)noc1=O [Example 176, 3-[(2-chloro-6-fluorophenyl)methyl]-4-propyl-4,5-dihydro-1,2,4-oxadiazol-5-one]"
1000 to 10000 nM,200 to 1000 nM,,1000 to 10000 nM,"O=c1onc(CC2CCC(F)(F)CC2)n1Cc1cncs1 [Example 193, 3-[(4,4-difluorocyclohexyl)methyl]-4-[(1,3-thiazol-5-yl)methyl]-1,2,4-oxadiazol-5(4H)-one]"
> 10000 nM,> 10000 nM,,> 10000 nM,"CC(C)(c1c(F)cccc1Cl)c1noc(=O)n1CC1CCCCC1 [Example 121, 3-[2-(2-chloro-6-fluorophenyl)propan-2-yl]-4-(cyclohexylmethyl)-4,5-dihydro-1,2,4-oxadiazol-5-one]"
200 to 1000 nM,< 200 nM,,< 200 nM,"O=c1onc(Cc2ccccc2Cl)n1CC1CCC(F)(F)CC1 [Example 158, 3-[(2-chlorophenyl)methyl]-4-[(4,4-difluorocyclohexyl)methyl]-4,5-dihydro-1,2,4-oxadiazol-5-one]"
